Assay results as given in patent US20220089592A1, “IMIDAZO[1,2-A]PYRIDINYL DERIVATIVES AS IRAK4 INHIBITORS” (priority 2019, published 2022).

Biological target: T1, IRAK4 (Homo sapiens, UniProt Q9NWZ3)
T1 sequence (Q9NWZ3 1-460): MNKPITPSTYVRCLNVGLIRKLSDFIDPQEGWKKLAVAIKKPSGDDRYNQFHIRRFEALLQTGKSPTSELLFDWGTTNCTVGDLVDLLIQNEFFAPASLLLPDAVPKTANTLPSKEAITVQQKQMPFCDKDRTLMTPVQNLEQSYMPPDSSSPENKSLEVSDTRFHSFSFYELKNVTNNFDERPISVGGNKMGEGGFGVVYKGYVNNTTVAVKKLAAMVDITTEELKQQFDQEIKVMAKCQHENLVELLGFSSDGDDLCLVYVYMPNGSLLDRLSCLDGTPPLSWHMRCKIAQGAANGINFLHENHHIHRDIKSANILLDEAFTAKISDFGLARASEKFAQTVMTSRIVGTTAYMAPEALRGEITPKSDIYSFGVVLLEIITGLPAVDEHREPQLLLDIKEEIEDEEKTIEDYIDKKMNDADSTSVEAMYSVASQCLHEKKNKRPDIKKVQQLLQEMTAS
Experiment: 2-hour 1 mM ATP IRAK4 Biochemical assay (as above, but with 100 pM IRAK4 and 1 mM ATP)
Settings: IRAK4 MSD BIOCHEMICAL (1 mM ATP) IC50 (μM), 100 pM IRAK4, 2 hours
Experimental: The 2-hour 10 μM ATP Biochemical Assay employs a MesoScale Detection (MSD) format.
The activity is quenched with 11 μl of 70 mM EDTA, pH 8.
To detect the phosphorylated biotinylated peptide substrate, 30 μl of the quenched reaction mixture is added to equivalent wells of a 384 well streptavidin coated MesoScale plate (Meso Scale Discovery #L21SA-1). After a 1 hour incubation of the plate for 1 hour at room temperature with gentle mixing, the plate wells are washed 3 times with 50 mM Tris, pH 7.5, 150 mM NaCl, 0.02% Tween-20.
A 25 μl volume of 1:500 anti-P-Threonine Rabbit polyclonal Antibody plus 1:500 Goat-anti-Rabbit Sulfo Tag Antibody (Meso Scale Discovery R32AB-1) in 50 mM Tris, pH 7.5, 150 mM NaCl, 0.02% Tween-20 plus 2% BSA is then added to each well. After a 1-hour incubation of the plate for 1 hour at room temperature with gentle mixing, the plate wells are washed, 3 times with 50 mM Tris, pH 7.5, 150 mM NaCl, 0.02% Tween-20. A 40 μl volume of 2×MSD Read Buffer (Meso Scale Discovery R92TC-1) is added to each well, and the plate is read immediately in an MSD Plate Reader (Meso Scale Discovery).
The 2-hour 1 mM ATP IRAK4 Biochemical assay was performed as described above, but with 100 pM IRAK4 and 1 mM ATP.

SMILES	IC50 [µM]
CCOc1c(NC(=O)c2cccc(C(F)F)n2)cn2cc(C3CCOCC3)nc2c1Cl [Example 272, N-(8-chloro-7-ethoxy-2-(tetrahydro-2H-pyran-4-yl)imidazo[1,2-a]pyridin-6-yl)-6-(difluoromethyl)picolinamide]	0.003
O=C(Nc1cn2cc(C3CC4(CCOC4)C3)nc2cn1)c1cccc(C(F)F)n1 (stereo not drawn) [Example 273, N-(2-(6-oxaspiro[3.4]octan-2-yl)imidazo[1,2-a]pyrazin-6-yl)-6-(difluoromethyl)picolinamide]	0.02
CC12CC(c3cn4cc(NC(=O)c5cccc(C(F)F)n5)ncc4n3)(CO1)C2 [Example 274, 6-(difluoromethyl)-N-(2-(1-methyl-2-oxabicyclo[2.1.1]hexan-4-yl)imidazo[1,2-a]pyrazin-6-yl)picolinamide]	0.068
O=C(Nc1cn2cc(C3CCOCC3)nc2cn1)c1cccc2c1OCC2 [Example 275, N-(2-(tetrahydro-2H-pyran-4-yl)imidazo[1,2-a]pyrazin-6-yl)-2,3-dihydrobenzofuran-7-carboxamide]	0.038
COc1nc(NC(=O)c2cccc(C(F)F)n2)cn2cc(C3COCCO3)nc12 (stereo not drawn) [Example 278, N-(2-(1,4-dioxan-2-yl)-8-methoxyimidazo[1,2-a]pyrazin-6-yl)-6-(difluoromethyl)picolinamide]	0.023
COCCCc1cn2cc(NC(=O)c3cccc(C(F)F)n3)cc(OC)c2n1 [Example 282, 6-(difluoromethyl)-N-(8-methoxy-2-(3-methoxypropyl)imidazo[1,2-a]pyridin-6-yl)picolinamide]	0.007
O=C(Nc1cc(OCC(F)F)c2nc(C3CCOCC3)cn2c1)c1cccc(C(F)F)n1 [Example 289, N-(8-(2,2-difluoroethoxy)-2-(tetrahydro-2H-pyran-4-yl)imidazo[1,2-a]pyridin-6-yl)-6-(difluoromethyl)picolinamide]	0.006
CCc1cc(NC(=O)c2cccc(C(F)F)n2)cn2cc(C3CCOCC3)nc12 [Example 290, 6-(difluoromethyl)-N-(8-ethyl-2-(tetrahydro-2H-pyran-4-yl)imidazo[1,2-a]pyridin-6-yl)picolinamide]	0.013
CC(C)(O)c1cc2nc(C3CCOCC3)cn2cc1NC(=O)c1cccc(C(F)F)n1 [Example 292, 6-(difluoromethyl)-N-(7-(2-hydroxypropan-2-yl)-2-(tetrahydro-2H-pyran-4-yl)imidazo[1,2-a]pyridin-6-yl)picolinamide]	0.001
CC(C)Oc1cc2nc(Cl)cn2cc1NC(=O)c1cccc(C(F)F)n1 [Example 294, N-(2-chloro-7-isopropoxyimidazo[1,2-a]pyridin-6-yl)-6-(difluoromethyl)picolinamide]	0.002
COc1c(NC(=O)c2cccc(C(F)F)n2)cn2cc(C34COC(C)(C3)C4)nc2c1C [Example 295, 6-(difluoromethyl)-N-(7-methoxy-8-methyl-2-(1-methyl-2-oxabicyclo[2.1.1]hexan-4-yl)imidazo[1,2-a]pyridin-6-yl)picolinamide]	0.004
Cc1nc(NC(=O)c2cccc(C(F)F)n2)cn2cc(C3CCOCC3)nc12 [Example 296, 6-(difluoromethyl)-N-(8-methyl-2-(tetrahydro-2H-pyran-4-yl)imidazo[1,2-a]pyrazin-6-yl)picolinamide]	0.089
O=C(Nc1cn2cc(C3CCOCC3)nc2c(OCC(F)(F)F)n1)c1cccc(C(F)F)n1 [Example 303, 6-(difluoromethyl)-N-(2-(tetrahydro-2H-pyran-4-yl)-8-(2,2,2-trifluoroethoxy)imidazo[1,2-a]pyrazin-6-yl)picolinamide]	0.038
O=C(Nc1cc(OC(F)F)c2nc(C3CCOCC3)cn2c1)c1cccc(C(F)F)n1 [Example 307, N-(8-(difluoromethoxy)-2-(tetrahydro-2H-pyran-4-yl)imidazo[1,2-a]pyridin-6-yl)-6-(difluoromethyl)picolinamide]	0.015
O=C(Nc1cc(Cl)c2nc(C3CCOCC3)cn2c1)c1cccc(C(F)F)n1 [Example 308, N-(8-chloro-2-(tetrahydro-2H-pyran-4-yl)imidazo[1,2-a]pyridin-6-yl)-6-(difluoromethyl)picolinamide]	0.043
COc1cc2nc(C34COC(C)(C3)C4)cn2cc1NC(=O)c1cccc(C(F)(F)F)n1 [Example 309, N-(7-methoxy-2-(1-methyl-2-oxabicyclo[2.1.1]hexan-4-yl)imidazo[1,2-a]pyridin-6-yl)-6-(trifluoromethyl)picolinamide]	0.001
COc1ccccc1C(=O)Nc1cn2cc(C34CC(C#N)(C3)C4)nc2cc1OC(C)C [Example 311, N-(2-(3-cyanobicyclo[1.1.1]pentan-1-yl)-7-isopropoxyimidazo[1,2-a]pyridin-6-yl)-2-methoxybenzamide]	0.006
O=C(Nc1cn2cc(C3CCOCC3)nc2cc1C(F)(F)F)c1cccc(C(F)F)n1 [Example 312, 6-(difluoromethyl)-N-(2-(tetrahydro-2H-pyran-4-yl)-7-(trifluoromethyl)imidazo[1,2-a]pyridin-6-yl)picolinamide]	0.052
COC(C)c1cc2nc(C3CCOCC3)cn2cc1NC(=O)c1cccc(C(F)F)n1 (stereo not drawn) [Example 313, 6-(difluoromethyl)-N-(7-(1-methoxyethyl)-2-(tetrahydro-2H-pyran-4-yl)imidazo[1,2-a]pyridin-6-yl)picolinamide]	0.067
COCc1cc2nc(C3CCOCC3)cn2cc1NC(=O)c1cccc(C(F)F)n1 [Example 314, 6-(difluoromethyl)-N-(7-(methoxymethyl)-2-(tetrahydro-2H-pyran-4-yl)imidazo[1,2-a]pyridin-6-yl)picolinamide]	0.013
Cc1cccc(C(=O)Nc2cn3cc(C4CCOCC4)nc3cc2C(F)F)n1 [Example 315, N-(7-(difluoromethyl)-2-(tetrahydro-2H-pyran-4-yl)imidazo[1,2-a]pyridin-6-yl)-6-methylpicolinamide]	0.021
CCOc1cc2nc(C(C)C#N)cn2cc1NC(=O)c1cccc(C(F)F)n1 (stereo not drawn) [Example 316, N-(2-(1-cyanoethyl)-7-ethoxyimidazo[1,2-a]pyridin-6-yl)-6-(difluoromethyl)picolinamide]	0.003
CC(C)Oc1c(NC(=O)c2cccnc2OC(F)F)cn2cc(C34COC(C)(C3)C4)nc2c1F [Example 323, 2-(difluoromethoxy)-N-(8-fluoro-7-isopropoxy-2-(1-methyl-2-oxabicyclo[2.1.1]hexan-4-yl)imidazo[1,2-a]pyridin-6-yl)nicotinamide]	0.073
CC(C)Oc1c(NC(=O)c2cccn(C(F)F)c2=O)cn2cc(C34COC(C)(C3)C4)nc2c1F [Example 324, 1-(difluoromethyl)-N-(8-fluoro-7-isopropoxy-2-(1-methyl-2-oxabicyclo[2.1.1]hexan-4-yl)imidazo[1,2-a]pyridin-6-yl)-2-oxo-1,2-dihydropyridine-3-carboxamide]	0.002
CC(C)Oc1c(NC(=O)c2ccn(C)n2)cn2cc(C34CCC(C)(C3)OC4)nc2c1F (stereo not drawn) [Example 325, N-(8-fluoro-7-isopropoxy-2-(1-methyl-2-oxabicyclo[2.2.1]heptan-4-yl)imidazo[1,2-a]pyridin-6-yl)-1-methyl-1H-pyrazole-3-carboxamide]	0.002
CCC(C)Oc1c(NC(=O)c2cccnc2OC)cn2cc(C34COC(C)(C3)C4)nc2c1F (stereo not drawn) [Example 326, N-(7-(sec-butoxy)-8-fluoro-2-(1-methyl-2-oxabicyclo[2.1.1]hexan-4-yl)imidazo[1,2-a]pyridin-6-yl)-2-methoxynicotinamide]	0.012
COc1ncccc1C(=O)Nc1cn2cc(C34COC(C)(C3)C4)nc2c(F)c1OC1CCCC1 [Example 329]	0.017
COc1c(Cl)c(NC(=O)c2cccc(C(F)F)n2)cn2cc(C3CCOCC3)nc12 [Example 331, N-(7-chloro-8-methoxy-2-(tetrahydro-2H-pyran-4-yl)imidazo[1,2-a]pyridin-6-yl)-6-(difluoromethyl)picolinamide]	0.031
O=C(Nc1cn2cc(C3CCOCC3)nc2cn1)c1csc(C2CC2)n1 [Example 332, 2-cyclopropyl-N-(2-(tetrahydro-2H-pyran-4-yl)imidazo[1,2-a]pyrazin-6-yl)thiazole-4-carboxamide]	0.108
COc1nc(NC(=O)c2coc(C(F)F)n2)cn2cc(C3CCOCC3)nc12 [Example 333, 2-(difluoromethyl)-N-(8-methoxy-2-(tetrahydro-2H-pyran-4-yl)imidazo[1,2-a]pyrazin-6-yl)oxazole-4-carboxamide]	0.044
